Consider 18 compounds from US20260035367A1 (Celgene Corporation, priority 2021, published 2026).

Where two headings read alike, the source gives them in different places.

For assay [1], the target named is T1, Recombinant human PKC-delta (His-tagged 345-676) (Homo sapiens, UniProt Q05655).
T1 construct: PKC-delta (His-tagged 345-676); His
Put plainly: PKC-delta inhibition assay (HTRF KinEASE kit). It is filed as biochemical. The following applies: ratio, PKC-theta vs PKC-delta HTRF; for PKC-theta/PKC-delta selectivity (binned): binned A to G.

Assay [2] relates to IL-2 secretion by human effector memory T cells (TEM). Nature of the assay: Effector memory T cells IL-2 release assay (CD3/CD28 stimulation, HTRF IL-2 detection). It is filed as cell-based. As to conditions: 24 h; for IC50: Homo sapiens, T-cell. The protocol:
Test compound-mediated inhibition of NFκB signalling in T cells was assessed by quantification of the IL-2 secretion by human effector memory T cells (TEM) upon treatment and stimulation. Human TEM cells were isolated from buffy coats of healthy donors obtained from the French blood bank.
Finally, 10 doses of test compound, originally prepared in DMSO by serial semi-log step dilution, were also added to cells in triplicate wells. Final DMSO concentration in wells was 0.1% in a total volume of 100 μL complete medium. Plates were incubated for 24 h at 37° C. in 5% CO2 atmosphere. After incubation, cell suspensions were centrifuged at 400×g and culture supernatants were recovered and stored at −80° C. […] IL-2 levels were determined in cell supernatants using an HTRF human IL-2 detection kit (Cisbio, cat #62HIL02PEH).

Assay [3] addresses T2, Recombinant human PKC-theta (His-tagged 362-706) (Homo sapiens, UniProt Q04759).
T2 construct: Recombinant human PKC-theta (His-tagged 362-706); His
Nature of the assay: PKC-theta inhibition assay (HTRF KinEASE kit). The following applies: ATP 6.5 μM, STK substrate 525 nM. Type of assay: biochemical. Here is the method: PKC-theta and PKC-delta biochemical activities were measured using the PKC-theta HTRF KinEASEkit kit, according to manufacturer's instructions (Cisbio, catalogue number 61ST1PEJ). Briefly, the kinase buffer component of the kit was supplemented with 10 mM MgCl2, 1 mM DTT and 0.1% Tween 20. […] The streptavidin_XL665 and STK antibody-cryptate detection reagents were mixed according to the manufacturer's instructions. Test compounds were diluted in DMSO in a series of 10 semi-log step doses; 10 nL of each compound dose were dispensed in 384 well plates. […] The reaction was started by addition of the substrate and ATP and incubated at 25° C. for 30 minutes or 20 minutes for the PKC-theta and PKC-delta assays, respectively. The detection reagents were added, and the plate was incubated in the dark for 2 hours. […] The ratio of acceptor and donor emission signals was calculated for each well. Percent inhibition values were calculated from the HTRF ratios at different doses and fitted to a 4-parameter logistic curve to determine IC50 values (see Table 2).

Setting [4] is: binned A to G, read-out: PKC-theta IL2 pIC50 (binned) (converted).
[5] abbreviates: read-out: PKC-theta IL2 pIC50 (converted).
The mark [6] stands for this setting: binned A to H, read-out: PKC-theta HTRF pIC50 (binned) (converted).
The mark [7] stands for this setting: read-out: PKC-theta HTRF pIC50 (converted).

T2 sequence (Q04759 362-706): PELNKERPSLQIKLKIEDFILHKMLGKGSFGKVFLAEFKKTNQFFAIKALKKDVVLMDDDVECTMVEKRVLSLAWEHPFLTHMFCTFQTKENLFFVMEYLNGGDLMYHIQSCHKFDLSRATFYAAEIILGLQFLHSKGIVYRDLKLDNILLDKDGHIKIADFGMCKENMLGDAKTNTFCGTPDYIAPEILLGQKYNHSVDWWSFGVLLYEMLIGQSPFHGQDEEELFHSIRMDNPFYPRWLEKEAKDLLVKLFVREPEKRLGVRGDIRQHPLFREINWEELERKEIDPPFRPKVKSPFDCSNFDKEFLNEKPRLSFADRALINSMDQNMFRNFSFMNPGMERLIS
T1 sequence (Q05655 345-676): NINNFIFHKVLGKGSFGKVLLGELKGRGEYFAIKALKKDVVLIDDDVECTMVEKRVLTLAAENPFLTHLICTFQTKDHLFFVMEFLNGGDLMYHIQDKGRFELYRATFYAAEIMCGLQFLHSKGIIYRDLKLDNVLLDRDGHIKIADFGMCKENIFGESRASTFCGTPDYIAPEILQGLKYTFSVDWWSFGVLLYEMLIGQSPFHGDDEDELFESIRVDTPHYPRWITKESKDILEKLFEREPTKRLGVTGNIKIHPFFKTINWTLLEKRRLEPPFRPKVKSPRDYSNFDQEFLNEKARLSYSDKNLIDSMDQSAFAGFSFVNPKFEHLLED

As to `C[C@]1(O)C(=O)Nc2nccc(-c3cc(F)cc(N4CCNCC4)c3)c21` (single isomer, unassigned) [Example 62], the PKC-theta/PKC-delta selectivity in assay [1] was found to be 5. Besides, in assay [1], the “PKC-theta/PKC-delta selectivity (binned)” value is “E (a ratio of between 5 and 10)”. In addition, the IC50 in assay [2] (setting [4]) is 100 to 316 nM; in assay [2] (setting [5]), 126 nM; in assay [3] (setting [6]) it was 3.16 to 10 nM; in assay [3] (setting [7]) it was 6.31 nM.
On to `C[C@@]1(O)C(=O)Nc2nccc(-c3cc(F)cc(N4CCNCC4)c3)c21` (single isomer, unassigned) [Example 63], for which, in assay [1], the “PKC-theta/PKC-delta selectivity (binned)” value is on record as “G (a ratio of 0 to 1)”. For the same compound, the IC50 in assay [2] (setting [4]) was more than 1000 nM; in assay [2] (setting [5]), 10000 nM; in assay [3] (setting [6]), 316 to 1000 nM; in assay [3] (setting [7]) it was 1000 nM.
For `C[C@H]1CN(c2cc(-c3ccnc4c3[C@@](C)(O)C(=O)N4)cc(C(F)(F)F)c2)CCN1` (single isomer, unassigned) [Example 81], the PKC-theta/PKC-delta selectivity in assay [1] came out at 9. For the same compound, the “PKC-theta/PKC-delta selectivity (binned)” value in assay [1] was “E (a ratio of between 5 and 10)”. Further, the “PKC-theta IL2 pIC50” value in assay [2] amounted to 6.7. Moreover, the “PKC-theta IL2 pIC50 (binned)” value in assay [2] (binned A to G) was “E (a measured pIC50 of between 6.5 and 7.0)”. Also, the values for the IC50 in assay [3] (setting [6]) and in assay [3] (setting [7]) were 10 to 31.6 nM and 25.1 nM, respectively.
Take `C[C@H]1CN(c2cc(-c3ccnc4c3[C@@](C)(O)C(=O)N4)cc(C(F)(F)F)c2)CCN1` (single isomer, unassigned) [Example 82]: in assay [1], the PKC-theta/PKC-delta selectivity is listed as 3; the “PKC-theta/PKC-delta selectivity (binned)” value was “F (a ratio of between 1 and 5)”. Besides, the “PKC-theta IL2 pIC50” value in assay [2] worked out at 5.4. The “PKC-theta IL2 pIC50 (binned)” value in assay [2] (binned A to G) is reported as “G (a measured pIC50<6.0)”. Further, in assay [3] (setting [6]), the IC50 was 316 to 1000 nM. In addition, the IC50 in assay [3] (setting [7]) is 1000 nM.
Take `C[C@@H]1CN(c2cc(Cl)cc(-c3ccnc4c3[C@](C)(O)C(=O)N4)n2)CCN1` (single isomer, unassigned) [Example 89]: the PKC-theta/PKC-delta selectivity in assay [1] was 17. Besides, the “PKC-theta/PKC-delta selectivity (binned)” value in assay [1] is “D (a ratio of between 10 and 20)”. Moreover, the IC50 in assay [2] (setting [4]) is 31.6 to 100 nM; in assay [2] (setting [5]), 63.1 nM; in assay [3] (setting [6]), 1 to 3.16 nM; in assay [3] (setting [7]), 3.16 nM.
Take `CC[C@H]1CN(c2cc(C(F)(F)F)cc(-c3ccnc4c3[C@](C)(O)C(=O)N4)n2)CCN1` (single isomer, unassigned) [Example 90]: the PKC-theta/PKC-delta selectivity in assay [1] is 17. In addition, the “PKC-theta/PKC-delta selectivity (binned)” value in assay [1] is “D (a ratio of between 10 and 20)”. Moreover, the IC50 in assay [2] (setting [4]) is 10 to 31.6 nM; in assay [2] (setting [5]), 15.8 nM; in assay [3] (setting [6]), 0.316 to 1 nM; in assay [3] (setting [7]), 0.794 nM.
In the case of `C[C@@]1(O)C(=O)Nc2nccc(-c3cc(Cl)cc(N4CCNCC(F)C4)n3)c21` (single isomer, unassigned) [Example 91], the PKC-theta/PKC-delta selectivity in assay [1] was found to be 6. Moreover, in assay [1], the “PKC-theta/PKC-delta selectivity (binned)” value is “E (a ratio of between 5 and 10)”. Moreover, the IC50 in assay [2] (setting [4]) was 100 to 316 nM; in assay [2] (setting [5]), 200 nM; in assay [3] (setting [6]), 3.16 to 10 nM; in assay [3] (setting [7]) it was 6.31 nM.
Turning to `CC1(F)CNCCN(c2cc(Cl)cc(-c3ccnc4c3[C@](C)(O)C(=O)N4)n2)C1` (single isomer, unassigned) [Example 92], in assay [1], the PKC-theta/PKC-delta selectivity amounted to 6. Besides, the “PKC-theta/PKC-delta selectivity (binned)” value in assay [1] is “E (a ratio of between 5 and 10)”. The IC50 in assay [2] (setting [4]) was 100 to 316 nM; in assay [2] (setting [5]), 200 nM; in assay [3] (setting [6]), 3.16 to 10 nM; in assay [3] (setting [7]), 7.94 nM.
In the case of `C[C@H]1CNCCN1c1cc(C(F)(F)F)cc(-c2ccnc3c2[C@](C)(O)C(=O)N3)n1` (single isomer, unassigned) [Example 93], the PKC-theta/PKC-delta selectivity in assay [1] was 12. The “PKC-theta/PKC-delta selectivity (binned)” value in assay [1] was “D (a ratio of between 10 and 20)”. Also, the IC50 in assay [2] (setting [4]) was 100 to 316 nM; in assay [2] (setting [5]), 126 nM; in assay [3] (setting [6]), 10 to 31.6 nM; in assay [3] (setting [7]) it was 12.6 nM.
With `C[C@@H]1CNCCN1c1cc(C(F)(F)F)cc(-c2ccnc3c2[C@](C)(O)C(=O)N3)n1` (single isomer, unassigned) [Example 94], the PKC-theta/PKC-delta selectivity in assay [1] came to 9. Further, the “PKC-theta/PKC-delta selectivity (binned)” value in assay [1] is “E (a ratio of between 5 and 10)”. Further, the IC50 in assay [2] (setting [4]) is 10 to 31.6 nM; in assay [2] (setting [5]), 20 nM; in assay [3] (setting [6]), 1 to 3.16 nM; in assay [3] (setting [7]) it was 2 nM.
Consider `C[C@H]1CN(c2cc(C(F)(F)F)cc(-c3ccnc4c3[C@](C)(O)C(=O)N4)n2)CCN1` (single isomer, unassigned) [Example 95], for which the PKC-theta/PKC-delta selectivity in assay [1] is listed as 15. In addition, in assay [1], the “PKC-theta/PKC-delta selectivity (binned)” value is “D (a ratio of between 10 and 20)”. The IC50 in assay [2] (setting [4]) was 31.6 to 100 nM; in assay [2] (setting [5]) it was 31.6 nM; in assay [3] (setting [6]), 1 to 3.16 nM; in assay [3] (setting [7]), 2 nM.
Turning to `C[C@@]1(O)C(=O)Nc2nccc(-c3cc(C(F)(F)F)cc(N4CCNC5CC54)n3)c21` (single isomer, unassigned) [Example 96], the PKC-theta/PKC-delta selectivity in assay [1] worked out at 10. For the same compound, the “PKC-theta/PKC-delta selectivity (binned)” value in assay [1] was “E (a ratio of between 5 and 10)”. Also, the IC50 in assay [2] (setting [4]) is 100 to 316 nM; in assay [2] (setting [5]), 200 nM; in assay [3] (setting [6]) it was 3.16 to 10 nM; in assay [3] (setting [7]), 5.01 nM.
For `C[C@@]1(O)C(=O)Nc2nccc(-c3cc(C(F)(F)F)cc(N4CC[C@H]5OCCN[C@@H]5C4)n3)c21` (single isomer, unassigned) [Example 97], in assay [1], the PKC-theta/PKC-delta selectivity turned out to be 21. Moreover, the “PKC-theta/PKC-delta selectivity (binned)” value in assay [1] is “C (a ratio of between 20 and 30)”. Also, the IC50 in assay [2] (setting [4]) is more than 1000 nM; in assay [2] (setting [5]), 3980 nM; in assay [3] (setting [6]) it was 100 to 316 nM; in assay [3] (setting [7]), 158 nM.
As to `C[C@H]1CNCCN1c1cc(Cl)cc(-c2ccnc3c2[C@](C)(O)C(=O)N3)n1` (single isomer, unassigned) [Example 104], in assay [1], the PKC-theta/PKC-delta selectivity worked out at 11. Moreover, the “PKC-theta/PKC-delta selectivity (binned)” value in assay [1] was “D (a ratio of between 10 and 20)”. Also, the IC50 was 100 to 316 nM in assay [2] (setting [4]), 126 nM in assay [2] (setting [5]), 3.16 to 10 nM in assay [3] (setting [6]) and 5.01 nM in assay [3] (setting [7]).
On to `C[C@@H]1CNCCN1c1cc(Cl)cc(-c2ccnc3c2[C@](C)(O)C(=O)N3)n1` (single isomer, unassigned) [Example 105], for which, in assay [1], the PKC-theta/PKC-delta selectivity amounted to 7. Further, the “PKC-theta/PKC-delta selectivity (binned)” value in assay [1] was “E (a ratio of between 5 and 10)”. In addition, the IC50 in assay [2] (setting [4]) was 10 to 31.6 nM; in assay [2] (setting [5]), 20 nM; in assay [3] (setting [6]) it was 0.316 to 1 nM; in assay [3] (setting [7]), 1 nM.
On to `CC[C@@]1(C)C(=O)Nc2nccc(-c3cc(Cl)cc(N4CCN[C@@H](C)C4)n3)c21` (single isomer, unassigned) [Example 170], for which the IC50 in assay [2] (setting [4]) was 100 to 316 nM; in assay [2] (setting [5]), 100 nM; in assay [3] (setting [6]), 3.16 to 10 nM; in assay [3] (setting [7]), 6.31 nM.
As to `O=c1[nH]c2nccc(-c3ccnc(N4CCNCC4)c3)c2[nH]1` [Example 13], the IC50 is more than 1000 nM in assay [2] (setting [4]), 10000 nM in assay [2] (setting [5]), 316 to 1000 nM in assay [3] (setting [6]) and 398 nM in assay [3] (setting [7]).
With `C[C@H]1CN(c2cc(Cl)cc(-c3ccnc4c3C(C)(O)C(=O)N4)n2)CCN1` (stereo partly drawn) [Example 74], in assay [1], the PKC-theta/PKC-delta selectivity was 12; the “PKC-theta/PKC-delta selectivity (binned)” value was “D (a ratio of between 10 and 20)”.
